{"source": "patent US20170326180A1", "about": "“Demineralized Bone Matrix Material having Allogenic Sphingosine-1-Phosphate” (DePuy Synthes Products, Inc., priority 2016, published 2017)", "origin": "cited, not measured here", "test_system": "mesenchymal stem cells", "details": "solution having 0.1 and 1 uM C1P; reported by Kim", "data": [{"substance": "ceramide-1-phosphate [C1P]", "values": [{"measurement": "chemotactic activity for mesenchymal stem cells", "result": "chemotactic activity"}]}]}
